pIC50: −log10 of the molar value.
Key:
BRD4(BD1+BD2) protein = biological target: T1, BRD4(BD1+BD2) protein (Homo sapiens, UniProt O60885); assay: BRD4 binding inhibition assay (TR-FRET); conditions: BRD4(BD1+BD2) TR-FRET Assay Kit, reaction 2 hours at room temperature; read-out: IC50 (concentration necessary for 50% inhibition of BRD4 binding activity)
T1 construct: 5 μL of BRD4(BD1+BD2) protein solution prepared to 3.6 ng/μL; purchased BPS Bioscience Inc. 32612
Protocol: This assay measures binding inhibition activity of the test substance on the bromodomain of BRD4 protein.
BRD4 binding inhibition activity assay was carried out using a BRD4(BD1+BD2)TR-FRET Assay Kit (BPS Bioscience Inc. Catalog #32612), according to the attached instructions. In a flat-bottom 384-well white plate (Greiner 781080) there was added 8 μL of Tb-labeled donor/dye-labeled acceptor solution diluted 160-fold with 1×BRD TR-FRET Assay Buffer1, with 5 μL of BET Bromodomain Ligand diluted 40-fold with 1×BRD TR-FRET Assay Buffer1 in the test substance measuring wells and the Positive Control wells, and 5 μL of Non-acetylated Ligand1 diluted 40-fold with 1×BRD TR-FRET Assay Buffer1 in the Negative Control wells. After adding 2 μL of test substance diluted with 1×BRD TR-FRET Assay Buffer1 to the test substance measuring wells, and 2 μL of Dimethyl Sulfoxide solution diluted 100-fold with 1×BRD TR-FRET Assay Buffer1 to the Positive Control wells and Negative Control wells, 5 μL of BRD4(BD1+BD2) protein solution prepared to 3.6 ng/μL with 1×BRD TR-FRET Assay Buffer1 was added and reaction was conducted for 2 hours at room temperature. The fluorescence intensity was measured at 620 nm and 665 nm with irradiation of 340 nm excitation light into each well, using an Envision™ (Perkin-Elmer). The ratio of fluorescence intensity at […] with respect to fluorescence intensity at 620 nm for each well was recorded as the TR-FRET ratio, and the TR-FRET ratio in the presence of the test substance was calculated with the Positive Control well value as 100%, subtracting the Negative Control well value. The concentration of test substance necessary for 50% inhibition of BRD4 binding activity (IC50) was calculated from the TR-FRET ratio, and shown in Table 1.

[1] = test system: AsPC-1/Cas9 cell line (human pancreatic cancer cell line AsPC-1); assay: AsPC-1/Cas9 growth inhibition assay; type: cell-based; conditions: 5 days culture, CellTiter Glo 2.0, read-out: IC50 (Absolute IC50, 50% inhibition of cell growth)
Protocol: Human pancreatic cancer cell line AsPC-1 (ATCC Number CRL1682) was infected with Edit-R Lentiviral hCMV-Blast-Cas9 Nuclease Particle (Dharmacon, VCAS10124) in the presence of 8 μg/ml of Hexadimethrine bromide (Sigma, H9268), and after 24 hours it was exposed to 10 μg/ml of Blastcidin S (Thermo, A11139) to remove the uninfected cells, thereby establishing an AsPC-1/Cas9 cell line. The cells were maintenance cultured in a 5% CO2 incubator (37° C.) using RPMI-1640 (FujiFilm-Wako Pure Chemical Industries) containing 10% fetal bovine serum (FBS: SIGMA 173012) and penicillin/streptomycin (FujiFilm-Wako Pure Chemical Industries) (hereunder referred to simply as “culture medium”). After adding 25 μL of AsPC-1/Cas9 cell suspension prepared to 3.2×10^4 cells/mL using culture medium into each well of a 384-well plate (Greiner 781091), the cells were cultured overnight in a 5% CO2 incubator (37° C.). On the following day, 25 μL of the test substance diluted with culture medium was added to each well, and culturing was continued for 5 days in a 5% CO2 incubator (37° C.). Next, 25 μL of CellTiter Glo™ 2.0 (Promega) was added to each well, and the plate contents were mixed for 5 minutes using a plate mixer. The plate was stationed for 10 minutes at room temperature while shielded from light, and then the luminous intensity was measured with an ENVISION™ (Perkin-Elmer). The luminescence value of the wells with addition of test substance was determined as a relative value, with 100% as the luminescence value of the wells with cells but without addition of the test substance and 0% as the luminescence value of the wells without cells. A plot of test substance concentration against luminescence value % approximated a 4-parameter logistic curve, and the test substance concentration necessary for 50% inhibition of cell growth (Absolute IC50) was calculated, and is shown in Table 10. In Table 10, the antibodies listed as “CEACAM6_#84.7” are the anti-CEACAM6 antibody of Example 301-1, the antibodies listed as “003” are the anti-folate receptor α antibody of Example 301-2, and the antibodies listed as “345A12” are the anti-mesothelin antibody of Example 301-3.
According the same method as in the AsPC-1/Cas9 growth inhibition assay described in Example 313 above, the test substance concentration necessary for 50% inhibition of cell growth (Absolute IC50) in the ADC described in Example 318 was calculated and is shown in Table 12.

Row | SMILES | pIC50 (BRD4(BD1+BD2) protein) | pIC50 [1]
1 | COc1cc(=O)n(C)cc1-c1ccc2nc(N)nc(C(CO)(CC3CC3)c3cccnc3)c2c1 (centres unmarked) [Example 25, 5-(2-Amino-4-(1-cyclopropyl-3-hydroxy-2-(pyridin-3-yl)propan-2-yl)quinazolin-6-yl)-4-methoxy-1-methylpyridin-2(1H)-one] | 6.89 | 10.24
2 | C#CC1CCN(c2nc(C(CO)(OC3CC3)c3ccccc3)c3cc(-c4cn(C)c(=O)c5[nH]ccc45)ccc3n2)CC1 (centres unmarked) [Example 26, 4-(4-(1-Cyclopropoxy-2-hydroxy-1-phenylethyl)-2-(4-ethynylpiperidin-1-yl)quinazolin-6-yl)-6-methyl-1,6-dihydro-7H-pyrrolo[2,3-c]pyridin-7-one] | 7.33 | 10.49
3 | Cn1cc(-c2ccc3nc(N4CCC(N5CCC(C)(N)CC5)CC4)nc(C(CO)(OC4CC4)c4ccccc4)c3c2)c2cc[nH]c2c1=O (centres unmarked) [Example 27, 4-(2-(4-Amino-4-methyl-[1,4′-bipiperidin]-1′-yl)-4-(1-cyclopropoxy-2-hydroxy-1-phenylethyl)quinazolin-6-yl)-6-methyl-1,6-dihydro-7H-pyrrolo[2,3-c]pyridin-7-one] | 7.10 | 
4 | C[C@@H]1CN(CC2CCN(c3nc(C(CN)(OC4CC4)c4ccccc4)c4cc(-c5cn(C)c(=O)c6[nH]ccc56)ccc4n3)CC2)[C@@H](C)CN1 (stereo partly drawn) [Example 28, 4-(4-(2-Amino-1-cyclopropoxy-1-phenylethyl)-2-(4-(((2S,5R)-2,5-dimethylpiperazin-1-yl)methyl)piperidin-1-yl)quinazolin-6-yl)-6-methyl-1,6-dihydro-7H-pyrrolo[2,3-c]pyridin-7-one] | 7.09 | 10.64
5 | C#CCNC1(C)CCN(C2CCN(c3nc(C(CO)(OC4CC4)c4ccccc4)c4cc(-c5cn(C)c(=O)c6[nH]ccc56)ccc4n3)CC2)CC1 (centres unmarked) [Example 29, 4-(4-(1-Cyclopropoxy-2-hydroxy-1-phenylethyl)-2-(4-methyl-4-(prop-2-yn-1-ylamino)-[1,4′-bipiperidin]-1′-yl)quinazolin-6-yl)-6-methyl-1,6-dihydro-7H-pyrrolo[2,3-c]pyridin-7-one] | 7.24 | 10.39
6 | C#CC1(O)CCN(C2CCN(c3nc(C(CO)(OC4CC4)c4ccccc4)c4cc(-c5cn(C)c(=O)c6[nH]ccc56)ccc4n3)CC2)CC1 (centres unmarked) [Example 30] | 7.57 | > 10.82
7 | C[C@@H]1CN(C2CCN(c3nc(C(CN)(OC4CC4)c4ccccc4)c4cc(-c5cn(C)c(=O)c6[nH]ccc56)ccc4n3)CC2)[C@@H](C)CN1 (some centres unmarked) [Example 31] | 7.21 | 10.43
8 | CCCC(CO)(CCC)c1nc(N2CCC(CN3CCNCC3)CC2)nc2ccc(-c3cn(C)c(=O)cc3OC)cc12 [Example 32, 5-(4-(4-(Hydroxymethyl)heptan-4-yl)-2-(4-(piperazin-1-ylmethyl)piperidin-1-yl)quinazolin-6-yl)-4-methoxy-1-methylpyridin-2(1H)-one] | 7.09 | 
9 | COc1cc(=O)n(C)cc1-c1ccc2nc(N3CCC(N4CCC(C)(N)CC4)CC3)nc(C(CO)(OC3CC3)c3cccc4ccccc34)c2c1 (centres unmarked) [Example 33, 5-(2-(4-Amino-4-methyl-[1,4′-bipiperidin]-1′-yl)-4-(1-cyclopropoxy-2-hydroxy-1-(naphthalen-1-yl)ethyl)quinazolin-6-yl)-4-methoxy-1-methylpyridin-2(1H)-one] | 6.36 | > 10.82
10 | CNCCN(C)C(=O)OCC(OC1CC1)(c1ccccc1)c1nc(N2CCC(CN3C[C@@H](C)NC[C@@H]3C)CC2)nc2ccc(-c3cn(C)c(=O)cc3OC)cc12 (stereo partly drawn) [Example 34, 2-Cyclopropoxy-2-(2-(4-(((2S,5R)-2,5-dimethylpiperazin-1-yl)methyl)piperidin-1-yl)-6-(4-methoxy-1-methyl-6-oxo-1,6-dihydropyridin-3-yl)quinazolin-4-yl)-2-phenylethyl methyl(2-(methylamino)ethyl)carbamate] | 7.04 | 
